Reference: patent US20140024171A1, “PERYLENE TETRACARBOXYLIC ACID BISIMIDE DERIVATIVE, N-TYPE SEMICONDUCTOR, A METHOD FOR PRODUCING N-TYPE SEMICONDUCTOR, AND ELECTRONIC DEVICE” (NATIONAL UNIVERSITY CORPORATION KAGAWA UNIVERSITY, priority 2012, published 2014)
Entries after “also recorded” stand apart in the source; their conditions may differ.

Columns and labels:
[1] = Solubility in organic solvents; format: physicochemical
Protocol: Thus, the liquid crystal compound (1-1) can be formed into a film by a spin coating method using a solution in any of these solvents. The film formation was performed as follows in the present example.
Thus, the liquid crystal compound (2-1) can be formed into a film by a spin coating method using a solution in any of these solvents. The film formation was performed as follows in the present example.

[2] = Charge transport properties (carrier mobility) by transient photocurrent measurement, Time-of-Flight (TOF) method; format: physicochemical; conditions: for maximum electron mobility calculated by the TOF method: room temperature (25° C.), sample thickness 9 μm, applied voltage 10 V to 100 V
Protocol: Charge transport properties (carrier mobility properties) of the liquid crystal compound (2-1) ((2), m=1, n=1) obtained in Example 2 were measured by a Time-of-Flight (TOF) method. In this method, while a DC voltage was applied to a sandwich-type sample (liquid crystal cell produced in Example 4) having photoconductivity, the sample was irradiated with a pulse laser to cause photocarriers to be generated on one side of the sample, and a change in displacement current (transient photocurrent) induced in an external circuit when the carriers transited in the sample over time was measured. A constant current was generated by the transit of photocarriers, and when the carriers reached the counter electrode, the current was decayed to 0. The time from a start of decay in transient photocurrent to 0 corresponds to the time required for the carriers to transit in the sample (transit time). When the thickness of the sample is represented by d (cm), an applied voltage is represented by V (volt), and the transit time is represented by tT, mobility p (cm^2/Vs) is represented by the following mathematical expression. When an electrode on the irradiation side is biased to positive, mobility of positive carriers is determined, and when an electrode on the irradiation side is biased to negative, mobility of negative carriers is determined.
The measurement by a Time-of-Flight method was performed as follows. That is, while a voltage was applied to the liquid crystal cell produced in Example 4 at room temperature, the liquid crystal cell was irradiated with a pulse laser (Nd: YAG laser, THG: wavelength of 356 nm, pulse width of 1 ns), and a displacement current induced at the time of the irradiation was measured with a digital oscilloscope. […] In FIG. 7, the horizontal axis indicates time (μs), and the vertical axis indicates a photocurrent (μA). The present sample has favorable photoconductivity, and thus, sufficiently strong current signal could be obtained. […] According to the measurement result, the mobility of negative carriers reached maximum at 1×10^−3 cm^2/Vs at 30° C. This value is higher by an order of magnitude than the mobility of a conjugate polymer-fullerene derivative composite generally used in a bulk hetero junction-type organic thin-film solar battery.
Charge transport properties (carrier mobility properties) of the liquid crystal compound (2-44) ((2), m=0, n=1)) were measured through transient photocurrent measurement by a Time-of-Flight method using the liquid crystal cell produced in Example 8. The transient photocurrent measurement by a Time-of-Flight method was performed in the same manner as in the measurement of charge transport properties (carrier mobility properties) of the liquid crystal compound (2-1) ((2), m=1, n=1). The thickness of a sample of the liquid crystal compound (2-44) ((2), m=0, n=1)) was 25 μm. The measurement temperature was 40° C., and the measurement was performed while changing an applied voltage from 10 V to 100 V by 10 V increments. The graphs of FIGS. 11A and 11B show the results of the measurement. In FIGS. 11A and 11B, the horizontal axis indicates time (μs), and the vertical axis indicates a photocurrent (μA). As shown in FIGS. 11A and 11B, in the same time of flight, the higher the applied voltage was, the higher the photocurrent flowed.
In addition, the same measurement as in FIGS. 11A and 11B was performed with a change in measurement temperature from 25° C. to 130° C. The result of the measurement is shown in a graph of FIG. 12A. In FIG. 12A, the horizontal axis indicates an electric field strength (10^4 V/cm), and the vertical axis indicates carrier mobility (cm^2/Vs). […] Thus, the vertical axis (carrier mobility) is equal to electron mobility.
A result of the measurement at an electric field strength of 4.0×10^4 V/cm in FIG. 12A is shown in a graph of FIG. 12B as a function of time and electron mobility. […]

| SMILES | solubility in organic solvents [1] | electron mobility relative to the maximum electron mobility of liquid crystal compound (2-1) [2] | maximum electron mobility calculated by the TOF method [2] | further results |
| --- | --- | --- | --- | --- |
| C[Si](C)(C)O[Si](C)(C)O[Si](C)(C)CCCN1C(=O)c2ccc3c4ccc5c6c(ccc(c7ccc(c2c37)C1=O)c64)C(=O)N(CCC[Si](C)(C)O[Si](C)(C)O[Si](C)(C)C)C5=O [Compound (1-1), perylene tetracarboxylic acid bis(1,1,1,3,3,5,5-heptamethyltrisiloxanylpropylimide)] | soluble in toluene, chlorobenzene, tetrahydrofuran, chloroform, dichloromethane, and the like; also recorded: high solubility in various organic solvents |  |  |  |
| C[Si](C)(C)O[Si](C)(C)O[Si](C)(C)CCCCC(CCCC[Si](C)(C)O[Si](C)(C)O[Si](C)(C)C)N1C(=O)c2ccc3c4ccc5c6c(ccc(c7ccc(c2c37)C1=O)c64)C(=O)N(C(CCCC[Si](C)(C)O[Si](C)(C)O[Si](C)(C)C)CCCC[Si](C)(C)O[Si](C)(C)O[Si](C)(C)C)C5=O [Compound (2-1), perylene tetracarboxylic acid bis{di-(1,1,1,3,3,5,5-heptamethyltrisiloxanylbutyl)-methylimide}] | soluble in ethyl acetate, acetone, cyclohexane, and the like in addition to toluene, chlorobenzene, tetrahydrofuran, chloroform, dichloromethane, and the like; also recorded: high solubility in various organic solvents |  |  |  |
| C[Si](C)(C)O[Si](C)(C)CCCCC(CCCC[Si](C)(C)O[Si](C)(C)C)N1C(=O)c2ccc3c4ccc5c6c(ccc(c7ccc(c2c37)C1=O)c64)C(=O)N(C(CCCC[Si](C)(C)O[Si](C)(C)C)CCCC[Si](C)(C)O[Si](C)(C)C)C5=O [Compound (2-44)] |  | 100 times higher |  | maximum electron mobility ([2]; 40° C., electric field strength 4.0×10^4 V/cm, sample thickness 25 μm): 1.2×10^−1 cm^2/Vs; electron mobility at 130° C. relative to the electron mobility at 40° C. ([2]; temperature increased to 130° C.): about a half |
| C[Si](C)(C)O[Si](C)(C)CCCCCCC(CCCCCC[Si](C)(C)O[Si](C)(C)C)N1C(=O)c2ccc3c4ccc5c6c(ccc(c7ccc(c2c37)C1=O)c64)C(=O)N(C(CCCCCC[Si](C)(C)O[Si](C)(C)C)CCCCCC[Si](C)(C)O[Si](C)(C)C)C5=O [Compound (2-46)] |  | about 10 times higher | 1×10^−2 cm/Vs |  |
| C[Si](C)(C)O[Si](C)(C)O[Si](C)(C)CCCCC(CCCC[Si](C)(C)O[Si](C)(C)O[Si](C)(C)C)Oc1ccc(N2C(=O)c3ccc4c5ccc6c7c(ccc(c8ccc(c3c48)C2=O)c75)C(=O)N(c2ccc(OC(CCCC[Si](C)(C)O[Si](C)(C)O[Si](C)(C)C)CCCC[Si](C)(C)O[Si](C)(C)O[Si](C)(C)C)cc2)C6=O)cc1 [Compound (5-1), N—N′-bis(4-(1,9,-di(1,1,1,3,3,5,5-heptamethyltrisiloxanyl)nonane-5-yloxy)phenyl)perylene-3,4,9,10-tetracarboxylic acid bisimide] |  |  | 1×10^−4 cm/Vs |  |
| C=CCN1C(=O)c2ccc3c4ccc5c6c(ccc(c7ccc(c2c37)C1=O)c64)C(=O)N(CC=C)C5=O [Compound (6), perylene tetracarboxylic acid bis(allylimide)] | barely dissolved in an organic solvent |  |  |  |
